What was measured:
[1] = Separation of surfactant from PEG400, observed for seven days; assay type: physicochemical; conditions: 1 wt. % solution in PEG400, 50 ml tubes, observed daily for seven days
Description: 1 wt. % solutions of C8AO (Hexyl dimethyl amine oxide), C10AO (NN dimethyl octyl amine oxide), C14AO (NN Dimethyl dodecyl amine oxide), […] and C18AO (NN Dimethyl-N-oxide hexadecane amine) with PEG400 were prepared and placed in 50 ml tubes. The tubes were observed daily for seven days. No separation of surfactant from PEG400 was observed.

[2] = Description: Non-ionic surfactants (Tergitol 15-S-5, Surfynol465), an amphoteric surfactant (Mackam OCT-50), an anionic surfactant (Dodecylbenzene sulfonate Na) and a cationic surfactant (Cetyl trimethyl ammonium bromide) were tested for solubility in an inkjet test ink having the following formulation.
The pass/fail criteria were the absence or presence of insoluble material on the bottom on the container after three days at room temperature.

[3] = Wetting effectiveness of surfactants on orifice (nozzle) plate; assay type: physicochemical; parameters: key: Good: Wetting is considered “good” when a very thick layer of ink spreads out evenly on the orifice plate
Description: To determine an effective surfactant concentration range in a servicing fluid, the following procedure was used. A think uniform coat of test servicing fluid was applied to the nozzle plate. 0.5 μl of drop test ink was then applied to the coated nozzle plate and the maximum dot diameter was then measured.
Wetting is considered “good” when a very thick layer of ink spreads out evenly on the orifice plate.

Structure (SMILES) | Separation of surfactant from PEG400 [1] | Compatibility [2] | also measured
CCCCCC[N+](C)(C)[O-] [Hexyl dimethyl amine oxide] | No separation | Pass | 
CCCCCCCC[N+](C)(C)[O-] [Dimethyl Octylamine oxide] | No separation |  | Wetting ([3]; 0.01 wt. % surfactant in PEG 300 servicing fluid): Good; Wetting ([3]; 0.1 wt. % surfactant in PEG 300 servicing fluid): Good; Wetting ([3]; 1.0 wt. % surfactant in PEG 300 servicing fluid): Poor; Wetting ([3]; 2.0 wt. % surfactant in PEG 300 servicing fluid): Poor; Wetting ([3]; 3.0 wt. % surfactant in PEG 300 servicing fluid): Poor; Wetting ([3]; 4.0 wt. % surfactant in PEG 300 servicing fluid): Poor
CCCCCCCCCCCC[N+](C)(C)[O-] [C14AO, NN Dimethyl dodecyl amine oxide] | No separation |  | 
CCCCCCCCCCCCCCCC[N+](C)(C)C.[Br-] [Cetyl trimethyl ammonium bromide] |  | Fail | 

The next lines start with results.

Separation of surfactant from PEG400 [1] | Structure (SMILES) | Compatibility [2] | also measured
No separation | CCCCCCCCCCCCCC[N+](C)(C)[O-] [Myristyl dimethyl amine oxide] |  | 
No separation | CCCCCCCCCCCCCCCC[N+](C)(C)[O-] [NN Dimethyl-N-oxide hexadecane amine] |  | 
